The record followed here is patent US20260102413A1, “TREATING PAIN ASSOCIATED WITH CENTRAL SENSITIZATION” (Medicon Pharmaceuticals, Inc., priority 2022, published 2026).

Series [1] concerns mice with paclitaxel-induced CIPN. The series can be described thus: thermal allodynia (paw withdrawal latency, radiant heat), paclitaxel CIPN model. The format is in vivo, mouse. The settings on record: oral PS 50 mg/kg, sulindac 33 mg/kg 3x/day, day 16 of treatment. How it is done:
Group 3: paclitaxel pluse sulindac (n=8)
Thermal allodynia was also determined for the mice study groups below (with 8 mice per group): • 1. Group 1: naïve mice (i.e. no paclitaxel) • 2. Group 2: paclitaxel only • 3. Group 3: paclitaxel plus vehicle • 4. Group 4: paclitaxel plus NO-sulindace • 5. Group 5: paclitaxel plus thiol-sulindac

Series [2] deals with mice with chronic constriction injury (PTPN). The series can be described thus: von Frey PWT, CCI model of PTPN, orally administered compounds. The format is in vivo, mouse. The following applies: oral once a day: PS 50, PSA 50, sulindac 33 mg/kg. How it is done: Phospho-ibuprofen (PI) (Formula III), phospho-ibuprofen-amide (PIA) (Formula XI), ibuprofen and vehicle control were all administered orally, three times a day for 14 days. Their doses were as follows: PI 80 mg/kg, PIA 80 mg/kg, ibuprofen 40 mg/kg (all three are equimolar). […] Group 1: vehicle (n=5-8) • 2. Group 2: ibuprofen (n=5-8) • 3. Group 3: phospho-ibuprofen (PI) (n=5-8) • 4. Group 4: phospho-ibuprofen-amide (PIA) (n=5-8)

The test system of series [3] is mice with NTG-induced chronic migraine. The series can be described thus: von Frey PWT, NTG-induced chronic migraine model. The format is in vivo, mouse. From the text:
The NTG-induced chronic migraine model was used as described previously.

Series [4] concerns mice with chronic constriction injury of the left sciatic nerve (PTPN). The series can be described thus: von Frey PWT, chronic constriction injury (CCI) model of PTPN, topical compounds. The following applies: PS 5% gel, sulindac 0.7% gel on left paw 3x/day 14 days; pregabalin (10 mg/ml) oral gavage once 1 h before; day 14. It counts as in vivo, mouse. The protocol: The PWT test was performed following ligation, but prior to treatment to determine baseline values. The PWT was then further measured on day 14.

The format of series [5] is in vivo, mouse. The settings on record: all tissues except the sciatic nerve (higher) and DRG (equal). The protocol:
At 0.5, 1, 3, 5, 12, 18, and 24 h, mice (n=4-5 mice/time point) were euthanized with CO2 inhalation. Blood was drawn immediately after death. Tissues, including paw skin, paw muscle, leg muscle, the sciatic nerve and lumbar DRG bilaterally were dissected quickly, immediately frozen in liquid nitrogen and stored at −80° C. until analyzed.

The next series relates to STZ-diabetic rats. It counts as in vivo, rat. The settings on record: PS 8% hydrogel, sulindac 0.7% hydrogel 3x/day day −2 to 28; lidocaine cream 5% once 30 min before; STZ day 0; day 28. The source says: The animal model corresponds to that used for Example 4, but using a prevention protocol. As in Example 4, the outcome measure, determining the effect of the treatment on the prevention of mechanical allodynia, was the PWT test, using von Frey filaments. The measurements were taken at day −3, before treatment or induction of neuropathic pain associated with DPN, and again at the end of the study period (day 28).
The rats were randomised into treatment groups as follows, all having an average body weight of about 225 g. • 1. Group 1: naïve rats (n=6) • 2. Group 2: STZ only (n=8) • 3. Group 3: STZ plus vehicle (n=8) • 4. […] Group 5: STZ plus sulindac 0.7% (n=8) • 6. Group 6: STZ plus lidocaine cream 5% (n=8)
Each treatment group was subjected to a PWT assessment at day −3 in order to determine the baseline of mechanical allodynia.
For those rats in the lidocaine treatment group, lidocaine cream was applied only once to both hind paws of the rats 30 min before the final PWT measurement on day 28. On day 0, neuropathic pain associated with DPN was induced with the administration of STZ, and the blood glucose was checked on day 3.

The subject of series [6] is mice with paclitaxel-induced CIPN. The series can be described thus: von Frey PWT, paclitaxel CIPN model, orally administered compounds. It counts as in vivo, mouse. The settings on record: paclitaxel 8 mg/kg x4; oral gavage 3x/day 7 days: PS 50, sulindac 33, PN 65, naproxen 35 mg/kg; day 7.
Source text: CIPN was induced in mice with chemotherapeutic agents using established protocols (Carozzi et al, 2010; Currie et al, 2019; Eldridge et al, 2020). […] This dosing regimen of paclitaxel produces pain associated with CIPN with time courses that are similar to those of pain after paclitaxel administration in cancer patients.
Group 1: naïve mice (i.e. no paclitaxel, n=8) • 2. Group 2: paclitaxel only (n=8) • 3. Group 3: paclitaxel plus vehicle (n=8) • 4. […] Group 5: paclitaxel pluse sulindac (n=8)
The PWT test was performed on day 7.
Phospho-naproxen (PN) and naproxen were given by oral gavage, three times a day for 7 days. Their doses were as follows: PN, 65 mg/kg; naproxen, 35 mg/kg (equimolar to PN). The response of mechanical allodynia to phospho-naproxen (PN) and naproxen was tested on day 7.
(§1) This dosing regimen of paclitaxel produces pain associated with CIPN with time courses that are similar to those of pain after paclitaxel administration in cancer patients.
Phospho-ibuprofen (PI) (Formula III), phospho-glycerol-ibuprofen (PGI) (Formula LXXI), phospho-ibuprofen-amide (PIA) (Formula XI), and ibuprofen were given by oral gavage, three times a day for 6 days. Their doses were as follows: ibuprofen, 40 mg/kg; PI, 80 mg/kg; PIA, 80 mg/kg; all three were equimolar.
The response of mechanical allodynia to these compounds was tested on day 6, using the PWT test.
as §1
NO-sulindac (Formula XLIV), HS-sulindac (Formula XXXIV), platinum-sulindac (Formula LXVII), and NOSH-1 (Formula LIX) were given by oral gavage, three times a day throughout the study period. Their doses were all 100 mg/kg.
The response of mechanical allodynia to these compounds was tested on the days set out in the table below, via the PWT test.
LXIX was given by oral gavage, once a day for 14 days at a dose of 100 mg/kg.
The response of mechanical allodynia to these compounds was tested on day 14, via the PWT test.

Series [7] in a line: drug levels in proximal and distal half of the sciatic nerve after topical PS. It counts as in vivo, mouse. The following applies: paclitaxel-PN mice, PS 8% ointment 3x/d 2 wks; 30 min after last dose. The protocol:
In a separate experiment we studied 8 mice with paclitaxel-induced PN treated with PS 8% ointment 3×/d for 2 wks. Mice were euthanized as above 30 minutes after the last dose of PS. From these mice we harvested both sciatic nerves dividing each into proximal and distal halves, and combined the corresponding halves of every two animals for assay of drug levels.

Series [8] has as its system mice with NTG-induced migraine. The series can be described thus: von Frey PWT, NTG-induced migraine model, oral or intraperitoneal compounds. It counts as in vivo, mouse. The following applies: oral 30 min after NTG: PS 50, sulindac 33, PN 65, naproxen 35 mg/kg; 30 min after administration. How it is done: Phosphonaproxen (Formula VIII), and its parent compound, naproxen, were administered orally to each mouse group. All compounds were administered at equimolar doses. In particular, phosponaproxen was administered at 65 mg/kg, and naproxen was administered at 35 mg/kg, 30 minutes after NTG administration. The response of mechanical allodynia was tested 30 minutes after administration.

Structures are written as SMILES.

As for `CC1=C(CC(=O)O)c2cc(F)ccc2/C1=C\c1ccc([S+](C)[O-])cc1` (centres unmarked) [sulindac, reference compound], the “PWL, sec Mean ± SEM” value in series [1] was found to be 7.87 ± 0.7 s. Also, the “PWT, g Mean ± SEM” value is listed as “Day 6 = 0.6 ± 0.03 g” in [2] (Day 6); “Day 14 = 0.6 ± 0.0 g” in series [2] (Day 14); 0.63 ± 0.07 g in [4]; 0.56 ± 0.05 g in [6]; 0.60 ± 0.04 g in [8]. For the same molecule, the “PWT, g Mean ± SEM, Day 11” value in series [3] (NTG 0.4 mg sublingual every two days x5, oral once a day 11 days: PS 50, sulindac 33 mg/kg, 30 min after administration) is given as 0.43 ± 0.03 g. Besides, in series [3] (group baseline prior to NTG administration), the “PWT, g Mean ± SEM, Baseline” value was found to be 1.80 ± 0.12 g. In addition, the “sulindac levels as % of those of PS” value in series [5] is “around 25%”. Moreover, in the series with STZ-diabetic rats, the “von Frey, gm mean ± SEM” value is recorded as 27.7 ± 1.4 gm. In series [7], the “Fold difference distal vs proximal” value is listed as 8.5.
